Assay results reported in the supplement of paper PMC10307832.

Experiments:
Assay in all cases: relative viability (nuclei count vs DMSO), 5 days (fraction); higher = more cells survive
Dactolisib + Decitabine = compound: Cn1c(=O)n(-c2ccc(C(C)(C)C#N)cc2)c2c3cc(-c4cnc5ccccc5c4)ccc3ncc21 [Dactolisib] + Nc1ncn([C@H]2C[C@H](O)[C@@H](CO)O2)c(=O)n1 [Decitabine] (partner 2 µM)
How it was run: (§1)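 Medians of duplicate plates are given as relative viability. That measure is the nuclei count in treated wells divided by the count in vehicle wells. Counts were taken on 4× images of lung cancer cell lines in 1536-well plates, 5 days after pin-tool dosing the day after seeding with one drug alone or a fixed anchor-drug dose plus five library-drug doses (not always all listed) in √10 steps.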

AZ505 + Linsitinib = compound: C1CCC(CC1)N(CCNCCC2=C3C(=C(C=C2)O)NC(=O)CO3)C(=O)CCNCCC4=CC(=C(C=C4)Cl)Cl [AZ505] + C[C@]1(O)C[C@@H](c2nc(-c3ccc4ccc(-c5ccccc5)nc4c3)c3c(N)nccn32)C1 [Linsitinib] (partner 1 µM)
How it was run: as §1

Dactolisib + Palbociclib = compound: Cn1c(=O)n(-c2ccc(C(C)(C)C#N)cc2)c2c3cc(-c4cnc5ccccc5c4)ccc3ncc21 [Dactolisib] + CC(=O)c1c(C)c2cnc(Nc3ccc(N4CCNCC4)cn3)nc2n(C2CCCC2)c1=O [Palbociclib] (partner 0.5 µM)
How it was run: as §1

AZ505 + Crizotinib = compound: C1CCC(CC1)N(CCNCCC2=C3C(=C(C=C2)O)NC(=O)CO3)C(=O)CCNCCC4=CC(=C(C=C4)Cl)Cl [AZ505] + C[C@@H](Oc1cc(-c2cnn(C3CCNCC3)c2)cnc1N)c1c(Cl)ccc(F)c1Cl [Crizotinib] (partner 1 µM)
How it was run: as §1

Cell Line	relative viability (Dactolisib + Decitabine; first compound 0.002 µM)	relative viability (Dactolisib + Decitabine; first compound 0.006325 µM)	relative viability (Dactolisib + Decitabine; first compound 0.02 µM)	relative viability (Dactolisib + Decitabine; first compound 0.06325 µM)	relative viability (Dactolisib + Decitabine; first compound 0.2 µM)	relative viability (AZ505 + Linsitinib; first compound 0.253 µM)	relative viability (AZ505 + Linsitinib; first compound 0.8 µM)	relative viability (AZ505 + Linsitinib; first compound 2.53 µM)	relative viability (AZ505 + Linsitinib; first compound 8 µM)	relative viability (Dactolisib + Palbociclib; first compound 0.002 µM)	relative viability (Dactolisib + Palbociclib; first compound 0.006325 µM)	relative viability (Dactolisib + Palbociclib; first compound 0.02 µM)	relative viability (Dactolisib + Palbociclib; first compound 0.06325 µM)	relative viability (Dactolisib + Palbociclib; first compound 0.2 µM)	relative viability (AZ505 + Crizotinib; first compound 0.253 µM)	relative viability (AZ505 + Crizotinib; first compound 0.8 µM)	relative viability (AZ505 + Crizotinib; first compound 2.53 µM)	relative viability (AZ505 + Crizotinib; first compound 8 µM)	relative viability (AZ505 + Linsitinib; first compound 0.08 µM)	relative viability (AZ505 + Crizotinib; first compound 0.08 µM)
HCC-78	0.834	0.854	0.619	0.612	0.455	0.642	0.571	0.619	0.7	0.46	0.453	0.479	0.475	0.441	0.397	0.373	0.341	0.389		
HCC-366	0.376	0.338	0.256	0.28	0.133	0.552	0.672	0.599	0.678	0.402	0.349	0.232	0.102	0.0378	0.365	0.551	0.396	0.534	0.534	0.418
HCC-827	0.387	0.343	0.337	0.27	0.294	0.958	0.856	0.977	0.964	0.473	0.518	0.47	0.36	0.171	0.854	0.913	0.918	0.948	0.923	0.865
HOP-62	0.287	0.238	0.215	0.275	0.22	1.03	1.08	0.863	1.08	0.467	0.45	0.383	0.288	0.147	0.853	1.03	0.964	0.88	0.932	0.849
IA-LM						0.572	0.701	0.597	0.643						0.769	0.861	0.75	1.07	0.497	0.695
LC-2-ad	0.888	0.871	0.727	0.784	0.73	0.901	0.844	0.883	0.845	0.434	0.48	0.51	0.454	0.426	0.475	0.438	0.472	0.427	0.819	0.432
LCLC-97TM1	0.261	0.24	0.23	0.172	0.155	0.2	0.16	0.201	0.199	0.217	0.252	0.194	0.161	0.0966	0.479	0.478	0.709	0.413	0.257	0.503
LCLC-103H	0.678	0.677	0.592	0.458	0.433	0.807	1.03	1.06	1.07	0.483	0.494	0.45	0.414	0.373	1.03	0.987	1.01	0.969	1.01	0.868
NCI-H522	0.797	0.723	0.751	0.62	0.533					0.924	1	0.99	0.754	0.674						
